Laboratory results taken from patent publication US20200247851A1, “Methods For Generating Epitopes For Binding To Recognition Molecules By Templated Assembly” (TriBiotica LLC, priority 2017, published 2020).
No end group written: not given here. *: point of attachment. Biotin = O=C1N[C@H]2[C@H](CS[C@H]2CCCCC(=O)*)N1

What was measured:
[1] = system: bilabeled fluorescent probe sequence; conditions: human EBV-transformed B lymphoid cell line, biotinylated W6/32, streptavidin bridge
Experimental: Following incubation of cells (10^6/ml) with a biotin conjugate of primary antibody pan-specific for human Class I (W6/32) and washing in phosphate-buffered saline (pH 7.2; PBS), the cell preparation was treated with a large excess of unmodified tetravalent streptavidin (Sigma; 10 μl each of 100 μM streptavidin per 100 μl of cells at 10^6/ml) for 30 minutes at room temperature, and rewashed in PBS.
Following this, a biotinylated template oligonucleotide was added, such that its terminal biotin group becomes bound to free sites on the surface streptavidin. […] The DNA template sequence used in this example corresponds to a transcribed segment of human papillomavirus (HPV), of sequence: 5′-Biotin-[sequence] […] As a control, a scrambled version of this sequence was used: 5′ Biotin-[sequence]

trastuzumab [2] = experiment: ELISA of biotinylated mimotope peptides on streptavidin plates titrated with trastuzumab; type: binding; conditions: 400 nM biotinylated peptide coating, trastuzumab 2-fold serial dilutions
Experimental: For intact mimotopes and their analogs, peptides with an N-terminal biotin label and a flexible spacer composed of serine and glycine residues (typically […]; SEQ ID NO:110) were used.
ELISA plates coated with tetravalent streptavidin were obtained for the assay, either from a commercial source (such as Thermofisher) or made by incubating polystyrene 96-well ELISA plates with solutions of streptavidin in PBS (1 μM) 16 hours/4° C., followed by blocking with a solution of bovine serum albumin (BSA) at 10 mg/ml in PBS pH 7.2, also for 16 hours/4° C. Plates were then emptied of solutions and washed three times with 100 μl PBS containing 0.05% Tween 20 (PBS-Tw20).
A suitable dilution series of the biotinylated peptides of interest was prepared in PBS, and at least duplicates (or higher numbers of replicates) were added to pre-designated wells in 100 μl volumes, and the plate incubated for 2 hours at room temperature (covered in Saran wrap). […] After a 30 minute incubation, reactions were stopped with 1 M sulfuric acid, and results assessed with an automated plate reader for absorbances at 450 nm. Final data was compiled from averaged replicates for each determination with subtraction of absorbances observed in wells where no target peptide antigen was added. […]

trastuzumab [3] = experiment: Flow analysis of trastuzumab mimotope placed on HER-2-negative MU89 cells via streptavidin bridge; type: cell-based; conditions: MU89 melanoma cells, W6/32 biotinylated primary antibody, fluoresceinated goat anti-kappa read-out
Text: In common with Example 11, for the repurposing of an antibody epitope by placement of a peptide mimotope on a cell surface, a surface marker for the cell type of interest was defined. […] The complex (biotinylated template-streptavidin-primary antibody) was then assembled on MU89 surface. Following that procedure and washing, biotinylated mimotope (Biotin-[…] ELWELSH; SEQ ID NO:35) was allowed to bind to the surface streptavidin. […] Subsequently, since trastuzumab is a humanized antibody with kappa light chains, a fluoresceinated goat anti-kappa antibody served to provide the final fluorescent read-out enabling flow analysis. […] However, it should be noted that while an amplification effect for fluorescent signal results from the multi-layered sandwich technique of this approach, the overall signal is ultimately linked to the level of expression of the primary antibody target.

trastuzumab [4] = conditions: L1 Q substitution; cited from earlier work
[5] = system: biotinylated anti-BRD7 Fab (bFab); experiment: Direct Binding Assay using streptavidin magnetic beads, denaturing gel read-out; design: species or system murine; conditions: with vs without bFab, PBSM
Experimental: Aptamers were incubated with bFab (2.5-fold molar excess), then bound to SAMBs. Supernatants were taken, and the SAMBs washed 3 times. Bound material was eluted with 0.1 M NaOH, and then precipitated, washed, dried, and reconstituted before loading samples on a denaturing acrylamide gel.
To assess binding of 10th-cycle singlet aptamers to the selective agent (the Fab target), direct binding assays were carried out. Here, single-stranded aptamer preparations (self-annealed as usual) were incubated with or without biotinylated Fab fragments in PBSM, followed by adsorption onto streptavidin magnetic beads. After this incubation period, the beads were magnetically separated, and the supernatants retained. […]
Despite successful in situ assembly of binary aptamers upon the target to which they were bound (as in Example 1), it could not be assumed that binary aptamers formed in solution would be capable of binding the same targets. This was assessed using the same aptamers as used in direct binding tests (Example 3; 228/10AptR1 and 229/10AptL3), but where the aptamers were initially ligated together by means of the same splint oligonucleotide as used in Example 1. […]

5′ Biotin-TAGCGCAAATAAGCCGCCAGAAC GATGATATAAACAGCATTAGGTAAGCTACAACA [control scrambled sequence, reference compound]
fluorescence signal of bilabeled probe hybridized to surface template [1]: not

5′-Biotin-TAACTGTCAAAAGCCACTGTGTC CTGAAGAAAAGCAAAGACATCTGGACAAAAAGC
fluorescence signal of bilabeled probe hybridized to surface template [1]: significant signal

Bio-SGGGSGGGQLGPYELWEL CH (Biotin-SGGGSGGGQLGPYELWELCH) [cysteine-modified mimotope]
recognition by Trastuzumab compared with the unmodified mimotope (trastuzumab [2]): almost the same extent | slope of trastuzumab titration curve, less than that seen for the unmodified peptide (trastuzumab [2]): approximately 10%

Bio-SGGGSGGGQLGPYELWELSH (Biotin-SGGGSGGGQLGPYELWELSH) [unmodified mimotope]
fluorescent signal from trastuzumab (trastuzumab [3]): clear-cut fluorescent signal

QLGPYEL WELSH (QLGPYELWELSH; segment of the mimotope) [mimotope for trastuzumab]
binding affinity relative to the initial mimotope LLGPYELWEL SH (trastuzumab [4]): higher binding affinity

B1: GCAAAGACATCTGGACA CGCCACTTATAGTCTACGTGAAGCACTGCGCTGGAACAGCCTAAAAAAGGAGAAGG AGACTTAGAGGC (nucleic acid)
DNA: GCAAAGACATCTGGACACGCCACTTATAGTCTACGTGAAGCACTGCGCTGGAACAGCCTAAAAAAGGAGAAGGAGACTTAGAGGC
modifications: chemistry not given here
binding to biotinylated Fab (bound material eluted from streptavidin magnetic beads) [5]: not
